Data reported in ChEMBL document CHEMBL1909046, “DrugMatrix in vitro pharmacology data”.

Experiments:
Carbonic anhydrase 2 = Carbonic anhydrase 2 (Homo sapiens, UniProt P00918); assay: DRUGMATRIX: Carbonic Anhydrase II enzyme inhibition (substrate: 4-Nitrophenyl acetate (4-NPA)); type: tissue-based, Erythrocyte; conditions: erythrocyte; Not Active = under 50% inhibition at 10 µM
Cytochrome P450 2D6 = Cytochrome P450 2D6 (Homo sapiens, UniProt P10635); conditions: bti-tn-5b1-4; note: in other assays of this panel Not Active means under 50% inhibition at 10 µM
[1] = biological target: T1, Muscarinic acetylcholine receptor M5 (Homo sapiens, UniProt P08912); type: cell membranes, Membrane; conditions: cho-k1; note: in other assays of this panel Not Active means under 50% inhibition at 10 µM
T1 sequence (P08912 whole entry): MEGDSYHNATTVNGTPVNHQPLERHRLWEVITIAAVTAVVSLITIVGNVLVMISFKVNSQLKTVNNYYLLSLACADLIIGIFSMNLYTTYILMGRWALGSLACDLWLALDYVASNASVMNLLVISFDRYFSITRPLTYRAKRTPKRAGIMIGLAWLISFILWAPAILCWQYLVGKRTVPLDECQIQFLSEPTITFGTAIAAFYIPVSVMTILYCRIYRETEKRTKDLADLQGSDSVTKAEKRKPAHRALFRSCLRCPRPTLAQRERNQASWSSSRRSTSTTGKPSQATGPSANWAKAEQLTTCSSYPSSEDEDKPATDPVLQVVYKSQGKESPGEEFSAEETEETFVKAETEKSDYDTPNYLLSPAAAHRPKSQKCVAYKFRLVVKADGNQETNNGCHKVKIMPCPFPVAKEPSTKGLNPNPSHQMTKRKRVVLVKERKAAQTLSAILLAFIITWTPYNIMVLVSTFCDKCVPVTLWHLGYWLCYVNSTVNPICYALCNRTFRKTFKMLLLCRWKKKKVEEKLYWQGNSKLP

[2] = biological target: T2, C-C chemokine receptor type 4 (Homo sapiens, UniProt P51679); type: cell membranes, Membrane; conditions: chem-1; note: in other assays of this panel Not Active means under 50% inhibition at 10 µM
T2 sequence (P51679 whole entry): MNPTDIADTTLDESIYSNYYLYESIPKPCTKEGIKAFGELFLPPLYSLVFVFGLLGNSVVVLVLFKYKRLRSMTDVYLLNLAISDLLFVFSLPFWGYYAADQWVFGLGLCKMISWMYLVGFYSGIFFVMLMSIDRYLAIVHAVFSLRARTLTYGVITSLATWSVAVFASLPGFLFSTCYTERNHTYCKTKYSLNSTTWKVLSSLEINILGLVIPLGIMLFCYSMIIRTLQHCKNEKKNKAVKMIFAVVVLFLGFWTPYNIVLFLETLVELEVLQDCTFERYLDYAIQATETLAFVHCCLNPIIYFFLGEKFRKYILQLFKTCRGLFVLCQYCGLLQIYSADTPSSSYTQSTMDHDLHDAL

Cytochrome P450 3A4 = Cytochrome P450 3A4 (Homo sapiens, UniProt P08684); conditions: bti-tn-5b1-4; note: in other assays of this panel Not Active means under 50% inhibition at 10 µM
Glycine receptor = Glycine receptor (Rattus norvegicus, UniProt P22771+P24524+P07727+P20781); type: cell membranes, Wistar, Spinal cord, Membrane; note: in other assays of this panel Not Active means under 50% inhibition at 10 µM
Adenosine receptor A1 = biological target: T3, Adenosine receptor A1 (Homo sapiens, UniProt P30542); type: cell membranes, CHO, Membrane
T3 sequence (P30542 whole entry): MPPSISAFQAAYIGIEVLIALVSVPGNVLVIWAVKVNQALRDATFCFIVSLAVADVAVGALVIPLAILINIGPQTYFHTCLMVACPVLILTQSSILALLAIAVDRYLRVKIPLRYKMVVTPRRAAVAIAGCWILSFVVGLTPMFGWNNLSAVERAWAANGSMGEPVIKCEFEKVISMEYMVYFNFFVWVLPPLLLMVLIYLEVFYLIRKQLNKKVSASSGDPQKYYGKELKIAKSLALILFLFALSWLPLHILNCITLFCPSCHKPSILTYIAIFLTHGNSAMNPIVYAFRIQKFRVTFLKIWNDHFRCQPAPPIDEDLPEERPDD

[3] = biological target: Mitogen-activated protein kinase 3 (Homo sapiens, UniProt P27361); assay: DRUGMATRIX: Protein Serine/Threonine Kinase, ERK1 enzyme inhibition (substrate: Myelin Basic Protein); set-up: species or system Escherichia coli; conditions: Not Active = under 50% inhibition at 10 µM
Chain of Mitogen-activated protein kinase 3 (P27361 whole entry): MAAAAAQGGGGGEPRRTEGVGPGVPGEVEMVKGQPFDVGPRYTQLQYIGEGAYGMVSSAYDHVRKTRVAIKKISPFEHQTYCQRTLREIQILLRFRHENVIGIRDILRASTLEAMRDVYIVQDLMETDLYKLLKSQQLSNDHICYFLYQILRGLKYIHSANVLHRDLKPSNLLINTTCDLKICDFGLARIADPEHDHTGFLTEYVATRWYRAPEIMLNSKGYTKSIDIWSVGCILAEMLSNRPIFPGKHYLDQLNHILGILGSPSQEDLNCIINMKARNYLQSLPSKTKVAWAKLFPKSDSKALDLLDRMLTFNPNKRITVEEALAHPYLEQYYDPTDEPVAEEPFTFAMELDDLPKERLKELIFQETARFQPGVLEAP

Chain of Cytochrome P450 3A4 (P08684 whole entry): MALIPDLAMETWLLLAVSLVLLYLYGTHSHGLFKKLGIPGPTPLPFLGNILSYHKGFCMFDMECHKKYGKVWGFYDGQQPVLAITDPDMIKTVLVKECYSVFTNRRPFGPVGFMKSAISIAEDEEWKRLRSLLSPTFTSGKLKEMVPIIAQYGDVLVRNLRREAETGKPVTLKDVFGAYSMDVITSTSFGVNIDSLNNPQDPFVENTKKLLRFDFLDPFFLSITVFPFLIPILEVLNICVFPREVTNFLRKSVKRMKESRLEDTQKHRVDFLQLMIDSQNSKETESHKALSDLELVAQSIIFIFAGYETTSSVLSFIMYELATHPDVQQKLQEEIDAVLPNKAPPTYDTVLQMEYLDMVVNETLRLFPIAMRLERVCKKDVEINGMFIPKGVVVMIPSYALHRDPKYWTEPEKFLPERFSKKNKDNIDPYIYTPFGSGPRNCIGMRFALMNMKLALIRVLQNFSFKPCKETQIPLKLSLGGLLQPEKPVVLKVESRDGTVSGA
Chain of Cytochrome P450 2D6 (P10635 whole entry): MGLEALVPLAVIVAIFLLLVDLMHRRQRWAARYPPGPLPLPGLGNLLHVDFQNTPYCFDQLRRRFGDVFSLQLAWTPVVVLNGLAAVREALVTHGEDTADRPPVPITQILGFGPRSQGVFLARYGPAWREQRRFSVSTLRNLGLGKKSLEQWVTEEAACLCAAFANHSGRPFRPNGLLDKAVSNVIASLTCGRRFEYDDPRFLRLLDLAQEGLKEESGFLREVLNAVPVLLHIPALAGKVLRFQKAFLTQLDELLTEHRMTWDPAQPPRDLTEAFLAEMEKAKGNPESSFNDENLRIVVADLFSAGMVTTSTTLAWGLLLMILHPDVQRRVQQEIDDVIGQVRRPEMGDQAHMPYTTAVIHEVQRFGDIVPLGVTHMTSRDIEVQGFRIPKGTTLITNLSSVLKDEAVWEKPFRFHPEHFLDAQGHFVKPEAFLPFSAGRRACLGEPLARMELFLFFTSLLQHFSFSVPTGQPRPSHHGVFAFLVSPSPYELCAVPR

Row | Compound | IC50 (Carbonic anhydrase 2) | IC50 (Cytochrome P450 2D6) | Ki (Cytochrome P450 2D6) | IC50 [1] | IC50 [2] | IC50 (Cytochrome P450 3A4) | Ki (Cytochrome P450 3A4) | IC50 (Glycine receptor) | IC50 (Adenosine receptor A1; read-out: IC50) [nM] | Ki (Adenosine receptor A1; read-out: Ki) [nM] | IC50 [3] | IC50 (Adenosine receptor A1; cho) | IC50 ([3]; read-out: IC50) [nM] | Ki (Carbonic anhydrase 2) | Ki [1] | Ki [2] | Ki (Glycine receptor) | Ki (Adenosine receptor A1; cho) | Ki [3]
1 | CCCc1nn(C)c2c(=O)[nH]c(-c3cc(S(=O)(=O)N4CCN(C)CC4)ccc3OCC)nc12 | Not Active | Not Active | Not Active | Not Active | Not Active | Not Active | Not Active | Not Active | 1490 | 871 | Not Active | – | – | – | – | – | – | – | –
2 | CN[C@@H]1[C@H](O)[C@H](NC)[C@H]2O[C@@]3(O)C(=O)C[C@@H](C)O[C@H]3O[C@@H]2[C@H]1O [SPECTINOMYCIN] | Not Active | Not Active | Not Active | Not Active | Not Active | Not Active | Not Active | Not Active | – | – | Not Active | Not Active | – | – | – | – | – | – | –
3 | O=P(O)(O)C(O)(Cc1cccnc1)P(=O)(O)O [RISEDRONIC ACID] | Not Active | Not Active | Not Active | Not Active | Not Active | Not Active | Not Active | Not Active | – | – | Not Active | Not Active | – | – | – | – | – | – | –
4 | COc1ccc(/C=C/C(=O)Nc2ccccc2C(=O)O)cc1OC | Not Active | Not Active | Not Active | Not Active | Not Active | Not Active | Not Active | Not Active | – | – | Not Active | Not Active | – | – | – | – | – | – | –
5 | O=c1n(CCCN2CCN(c3cccc(Cl)c3)CC2)nc2ccccn12 [TRAZODONE] | Not Active | Not Active | Not Active | Not Active | Not Active | Not Active | Not Active | Not Active | – | – | Not Active | Not Active | – | – | – | – | – | – | –
6 | CCOC(N)=O | Not Active | Not Active | Not Active | Not Active | Not Active | Not Active | Not Active | Not Active | – | – | Not Active | Not Active | – | – | – | – | – | – | –
7 | C#CCN(C)[C@H](C)Cc1ccccc1 [SELEGILINE] | Not Active | Not Active | Not Active | Not Active | Not Active | Not Active | Not Active | Not Active | – | – | Not Active | Not Active | – | – | – | – | – | – | –
8 | C[C@@H]1C[C@H]2[C@@H]3CCC4=CC(=O)C=C[C@]4(C)C3=CC[C@]2(C)[C@H]1C(=O)CN1CCN(c2cc(N3CCCC3)nc(N3CCCC3)n2)CC1 [TIRILAZAD] | Not Active | Not Active | Not Active | Not Active | Not Active | Not Active | Not Active | Not Active | – | – | – | Not Active | 16300 | – | – | – | – | – | –
9 | COc1ncnc(NS(=O)(=O)c2ccc(N)cc2)c1OC [SULFADOXINE] | Not Active | Not Active | Not Active | Not Active | Not Active | Not Active | Not Active | Not Active | – | – | Not Active | Not Active | – | – | – | – | – | – | –
10 | STANNOUS FLUORIDE | Not Active | Not Active | Not Active | Not Active | Not Active | Not Active | Not Active | Not Active | – | – | Not Active | Not Active | – | Not Active | Not Active | Not Active | Not Active | Not Active | Not Active
11 | CC1=C(CC(=O)O)c2cc(F)ccc2/C1=C\c1ccc(S(C)(=O)=O)cc1 [EXISULIND] | Not Active | Not Active | Not Active | Not Active | Not Active | Not Active | Not Active | Not Active | – | – | Not Active | Not Active | – | – | – | – | – | – | –
12 | NC[C@H]1O[C@H](O[C@H]2[C@H](O)[C@@H](O[C@H]3O[C@H](CO)[C@@H](O)[C@H](N)[C@H]3O)[C@H](N)C[C@@H]2N)[C@H](N)C[C@@H]1O [TOBRAMYCIN] | Not Active | Not Active | Not Active | Not Active | Not Active | Not Active | Not Active | Not Active | – | – | Not Active | Not Active | – | – | – | – | – | – | –
13 | O=C(O)C(Cl)(Cl)Cl [TRICHLOROACETIC ACID] | Not Active | Not Active | Not Active | Not Active | Not Active | Not Active | Not Active | Not Active | – | – | Not Active | Not Active | – | – | – | – | – | – | –
